# System: 171881-019-R-J1-PDC tumor spheroid viability
# Test: Anticancer human tumor 171881-019-R-J1-PDC patient-derived invasive breast carcinoma cell line growth inhibition [PI3K]
# Details: spheroids with HUVEC and MSC; for IC50: curve of first compound; for viability, T/C: stronger effect = lower value
# Outline: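 Combination activity was assessed by viability in multicellular tumor spheroids carrying HUVEC and MSC components. Agents were tested with PI3K inhibitors from a Cmax-based top dose (or 10 microM) downward in half-log increments.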
# [1] = second compound 0.0316 µM, first compound 0.0316 µM
# [2] = second compound 0.0316 µM, first compound 0.1 µM
# [3] = second compound 0.0316 µM, first compound 0.316 µM
# [4] = second compound 0.0316 µM, first compound 1 µM
# [5] = second compound 0.0316 µM, first compound 3.16 µM
# [6] = second compound 0.0316 µM, first compound 10 µM
# [7] = second compound 0.1 µM, first compound 0.0316 µM
# [8] = second compound 0.1 µM, first compound 0.1 µM
# [9] = second compound 0.1 µM, first compound 0.316 µM
# [10] = second compound 0.1 µM, first compound 1 µM
# [11] = second compound 0.1 µM, first compound 3.16 µM
# [12] = second compound 0.1 µM, first compound 10 µM
# [13] = second compound 0.316 µM, first compound 0.0316 µM
# [14] = second compound 0.316 µM, first compound 0.1 µM
# [15] = second compound 0.316 µM, first compound 0.316 µM
# [16] = second compound 0.316 µM, first compound 1 µM
# [17] = second compound 0.316 µM, first compound 3.16 µM
# [18] = second compound 0.316 µM, first compound 10 µM
# [19] = second compound 1 µM, first compound 0.0316 µM
# [20] = second compound 1 µM, first compound 0.1 µM
# [21] = second compound 1 µM, first compound 0.316 µM
# [22] = second compound 1 µM, first compound 1 µM
# [23] = second compound 1 µM, first compound 3.16 µM
# [24] = second compound 1 µM, first compound 10 µM
# [25] = second compound 3.16 µM, first compound 0.0316 µM
# [26] = second compound 3.16 µM, first compound 0.1 µM
# [27] = second compound 3.16 µM, first compound 0.316 µM
# [28] = second compound 3.16 µM, first compound 1 µM
# [29] = second compound 3.16 µM, first compound 3.16 µM
# [30] = second compound 3.16 µM, first compound 10 µM
# [31] = second compound 10 µM, first compound 0.0316 µM
# [32] = second compound 10 µM, first compound 0.1 µM
# [33] = second compound 10 µM, first compound 0.316 µM
# [34] = second compound 10 µM, first compound 1 µM
# [35] = second compound 10 µM, first compound 3.16 µM
# [36] = second compound 10 µM, first compound 10 µM
# [37] = second compound 0.0316 µM, first compound 0.00316 µM
# [38] = second compound 0.0316 µM, first compound 0.01 µM
# [39] = second compound 0.1 µM, first compound 0.00316 µM
# [40] = second compound 0.1 µM, first compound 0.01 µM
# [41] = second compound 0.316 µM, first compound 0.00316 µM
# [42] = second compound 0.316 µM, first compound 0.01 µM
# [43] = second compound 1 µM, first compound 0.00316 µM
# [44] = second compound 1 µM, first compound 0.01 µM
# [45] = second compound 3.16 µM, first compound 0.00316 µM
# [46] = second compound 3.16 µM, first compound 0.01 µM
# [47] = second compound 10 µM, first compound 0.00316 µM
# [48] = second compound 10 µM, first compound 0.01 µM
# 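Also: spheroids exposed to compound for 7 days before viability read.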
# 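For viability, T/C in this document: 100% = DMSO vehicle-treated spheroids.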
smiles,measurement,setting,value
CC(C)NCC(C(=O)N1CCN(c2ncnc3c2C(C)CC3O)CC1)c1ccc(Cl)cc1 (stereo not drawn) + Cc1nc(NC(=O)N2CCCC2C(N)=O)sc1-c1ccnc(C(C)(C)C(F)(F)F)c1,IC50,second compound 0.0316 µM,276 nM
same,IC50,second compound 0.1 µM,262 nM
same,IC50,second compound 0.316 µM,72.8 nM
same,IC50,second compound 1 µM,< 31.6 nM
same,IC50,second compound 3.16 µM,< 31.6 nM
same,IC50,second compound 10 µM,< 31.6 nM
same,"viability, T/C",[1],97.9%
same,"viability, T/C",[2],68.3%
same,"viability, T/C",[3],50.1%
same,"viability, T/C",[4],28.4%
same,"viability, T/C",[5],16.7%
same,"viability, T/C",[6],9.99%
same,"viability, T/C",[7],81.6%
same,"viability, T/C",[8],64.3%
same,"viability, T/C",[9],49.5%
same,"viability, T/C",[10],25.9%
same,"viability, T/C",[11],13.6%
same,"viability, T/C",[12],8.89%
same,"viability, T/C",[13],55.5%
same,"viability, T/C",[14],46.7%
same,"viability, T/C",[15],38%
same,"viability, T/C",[16],23.2%
same,"viability, T/C",[17],12.6%
same,"viability, T/C",[18],8.17%
same,"viability, T/C",[19],32%
same,"viability, T/C",[20],31%
same,"viability, T/C",[21],28.6%
same,"viability, T/C",[22],16.1%
same,"viability, T/C",[23],8.99%
same,"viability, T/C",[24],7.16%
same,"viability, T/C",[25],14.6%
same,"viability, T/C",[26],14.8%
same,"viability, T/C",[27],12.4%
same,"viability, T/C",[28],8.95%
same,"viability, T/C",[29],6.94%
same,"viability, T/C",[30],4.98%
same,"viability, T/C",[31],3.06%
same,"viability, T/C",[32],3.52%
same,"viability, T/C",[33],3.3%
same,"viability, T/C",[34],3.85%
same,"viability, T/C",[35],2.77%
same,"viability, T/C",[36],1.56%
CCN1CCN(Cc2ccc(Nc3ncc(F)c(-c4cc(F)c5nc(C)n(C(C)C)c5c4)n3)nc2)CC1 + Cc1nc(NC(=O)N2CCCC2C(N)=O)sc1-c1ccnc(C(C)(C)C(F)(F)F)c1,IC50,second compound 0.0316 µM,> 1000 nM
same,IC50,second compound 0.1 µM,> 1000 nM
same,IC50,second compound 0.316 µM,> 1000 nM
same,IC50,second compound 1 µM,< 3.16 nM
same,IC50,second compound 3.16 µM,< 3.16 nM
same,IC50,second compound 10 µM,< 3.16 nM
same,"viability, T/C",[37],102%
same,"viability, T/C",[38],92.9%
same,"viability, T/C",[1],98.6%
same,"viability, T/C",[2],103%
same,"viability, T/C",[3],111%
same,"viability, T/C",[4],103%
same,"viability, T/C",[39],83.9%
same,"viability, T/C",[40],85.8%
same,"viability, T/C",[7],91.5%
same,"viability, T/C",[8],91.9%
same,"viability, T/C",[9],105%
same,"viability, T/C",[10],104%
same,"viability, T/C",[41],59.5%
same,"viability, T/C",[42],61.1%
same,"viability, T/C",[13],72.2%
same,"viability, T/C",[14],73.8%
same,"viability, T/C",[15],80.7%
same,"viability, T/C",[16],83.3%
same,"viability, T/C",[43],37.2%
same,"viability, T/C",[44],38.8%
same,"viability, T/C",[19],39.1%
same,"viability, T/C",[20],45%
same,"viability, T/C",[21],53.3%
same,"viability, T/C",[22],61.5%
same,"viability, T/C",[45],15.4%
same,"viability, T/C",[46],17%
same,"viability, T/C",[25],19.5%
same,"viability, T/C",[26],21%
same,"viability, T/C",[27],28.6%
same,"viability, T/C",[28],42%
same,"viability, T/C",[47],3.79%
same,"viability, T/C",[48],4.44%
same,"viability, T/C",[31],4.59%
same,"viability, T/C",[32],4.85%
same,"viability, T/C",[33],8.73%
same,"viability, T/C",[34],14.2%
C[C@@H](NC(=O)c1ncnc(N)c1Cl)c1ncc(C(=O)Nc2cc(C(F)(F)F)c(Cl)cn2)s1 + Cc1nc(NC(=O)N2CCCC2C(N)=O)sc1-c1ccnc(C(C)(C)C(F)(F)F)c1,IC50,second compound 0.0316 µM,6100 nM
same,IC50,second compound 0.1 µM,3000 nM
same,IC50,second compound 0.316 µM,555 nM
same,IC50,second compound 1 µM,< 31.6 nM
same,IC50,second compound 3.16 µM,< 31.6 nM
same,IC50,second compound 10 µM,< 31.6 nM
same,"viability, T/C",[1],92.6%
same,"viability, T/C",[2],83.5%
same,"viability, T/C",[3],84.8%
same,"viability, T/C",[4],79.5%
same,"viability, T/C",[5],65%
same,"viability, T/C",[6],38.7%
same,"viability, T/C",[7],86.2%
same,"viability, T/C",[8],82.2%
same,"viability, T/C",[9],77.9%
same,"viability, T/C",[10],65.9%
same,"viability, T/C",[11],49.2%
same,"viability, T/C",[12],30.7%
same,"viability, T/C",[13],55.3%
same,"viability, T/C",[14],56.6%
same,"viability, T/C",[15],51.8%
same,"viability, T/C",[16],47.3%
same,"viability, T/C",[17],31.9%
same,"viability, T/C",[18],17.5%
same,"viability, T/C",[19],32.7%
same,"viability, T/C",[20],33.3%
same,"viability, T/C",[21],31.1%
same,"viability, T/C",[22],24.5%
same,"viability, T/C",[23],17.3%
same,"viability, T/C",[24],7.53%
same,"viability, T/C",[25],16.2%
same,"viability, T/C",[26],15.2%
same,"viability, T/C",[27],12.5%
same,"viability, T/C",[28],10.3%
same,"viability, T/C",[29],5.29%
same,"viability, T/C",[30],2.14%
same,"viability, T/C",[31],4.03%
same,"viability, T/C",[32],3.76%
same,"viability, T/C",[33],3.28%
same,"viability, T/C",[34],2.32%
same,"viability, T/C",[35],1.29%
same,"viability, T/C",[36],0.49%
Cn1ncnc1[C@H]1c2n[nH]c(=O)c3cc(F)cc(c23)N[C@@H]1c1ccc(F)cc1 + Cc1nc(NC(=O)N2CCCC2C(N)=O)sc1-c1ccnc(C(C)(C)C(F)(F)F)c1,IC50,second compound 0.0316 µM,> 100 nM
same,IC50,second compound 0.1 µM,> 100 nM
same,IC50,second compound 0.316 µM,> 100 nM
same,IC50,second compound 1 µM,< 0.316 nM
same,IC50,second compound 3.16 µM,< 0.316 nM
same,IC50,second compound 10 µM,< 0.316 nM
same,"viability, T/C","second compound 0.0316 µM, first compound 0.000316 µM",96.5%
same,"viability, T/C","second compound 0.0316 µM, first compound 0.001 µM",91%
same,"viability, T/C",[37],84.8%
same,"viability, T/C",[38],88.8%
same,"viability, T/C",[1],86.3%
same,"viability, T/C",[2],79.8%
same,"viability, T/C","second compound 0.1 µM, first compound 0.000316 µM",86.7%
same,"viability, T/C","second compound 0.1 µM, first compound 0.001 µM",65.1%
same,"viability, T/C",[39],76.4%
same,"viability, T/C",[40],73.1%
same,"viability, T/C",[7],74.1%
same,"viability, T/C",[8],66.6%
same,"viability, T/C","second compound 0.316 µM, first compound 0.000316 µM",50.2%
same,"viability, T/C","second compound 0.316 µM, first compound 0.001 µM",56.3%
same,"viability, T/C",[41],51.6%
same,"viability, T/C",[42],56.4%
same,"viability, T/C",[13],55%
same,"viability, T/C",[14],46.6%
same,"viability, T/C","second compound 1 µM, first compound 0.000316 µM",32.8%
same,"viability, T/C","second compound 1 µM, first compound 0.001 µM",32.8%
same,"viability, T/C",[43],29.4%
same,"viability, T/C",[44],31.6%
same,"viability, T/C",[19],29.6%
same,"viability, T/C",[20],27.4%
same,"viability, T/C","second compound 3.16 µM, first compound 0.000316 µM",13.4%
same,"viability, T/C","second compound 3.16 µM, first compound 0.001 µM",14%
same,"viability, T/C",[45],12.8%
same,"viability, T/C",[46],13.4%
same,"viability, T/C",[25],13.3%
same,"viability, T/C",[26],12.1%
same,"viability, T/C","second compound 10 µM, first compound 0.000316 µM",3.72%
same,"viability, T/C","second compound 10 µM, first compound 0.001 µM",3.81%
same,"viability, T/C",[47],4.27%
same,"viability, T/C",[48],3.81%
same,"viability, T/C",[31],3.35%
same,"viability, T/C",[32],2.96%

# Source: PubChem BioAssay AID1963986 (Molecular Pharmacology Branch, DTP, NCI, 2024)
